{"source": "patent US10898510B2", "about": "“Sulphated hyaluronic acids functionalised with dopamine” (priority 2016, dated 2021)", "test_system": "Staphylococcus aureus", "assay": "In vitro inhibition of S. aureus bacterial growth, titanium cylinder functionalized with HAS2-DOPA or HA-DOPA and Gentamicin", "format": "cell-based", "details": "Daptomycin at the same concentrations instead of Gentamicin", "method": "The following were prepared:\na solution of HA-DOPA (23%, Example 12) in 0.1 M PBS, pH=8; […]\nIdentical treatment was applied to the other two titanium cylinders, of equal size, which were sprayed first with the HA-DOPA derivative solution and then with the Gentamicin solution, by the procedures described above.\nFinally, two other titanium cylinders, of identical size, were sprayed with the PBS solution and then with the Gentamicin solution, by the procedures described above.\nEach cylinder (total: 6) was then immersed once in MQ water for 5 seconds, left to air-dry for 15 minutes and inserted in a culture broth (Buffered Peptone Water: peptone 10.0 g/L, sodium chloride 5.0 g/L, anhydrous disodium phosphate 3.6 g/L, potassium phosphate 1.5 g/L, Biokar Diagnostics) inoculated with 600,000,000 CFU/mL of Staphylococcus aureus. The broth was incubated at 37° C., and at pre-set times (6 h, 12 h, 24 h, 48 h, 144 h) 1 mL of supernatant was taken up and diluted scalarly 1:10 (according to the bacterial growth), with sterile saline solution, for plate seeding (PCA—Plate Count Agar: tryptone 5.0 g/L, yeast extract 2.5 g/L, glucose 1.0 g/L, bacteriological agar 12.0 g/L. Manufactured by Biokar Diagnostics). The CFU/mL count was then conducted.\nThe percentage bacterial growth inhibition data over time compared with the initial inoculum of 600 million CFU/mL of S. aureus are set out in FIG. 4.", "data": [{"smiles": "CCCCCCCCCC(=O)N[C@@H](Cc1c[nH]c2ccccc12)C(=O)N[C@H](CC(N)=O)C(=O)N[C@@H](CC(=O)O)C(=O)N[C@@H]1C(=O)NCC(=O)N[C@@H](CCCN)C(=O)N[C@@H](CC(=O)O)C(=O)N[C@H](C)C(=O)N[C@@H](CC(=O)O)C(=O)NCC(=O)N[C@H](CO)C(=O)N[C@@H]([C@H](C)CC(=O)O)C(=O)N[C@@H](CC(=O)c2ccccc2N)C(=O)O[C@@H]1C", "note": "[Daptomycin]", "values": [{"measurement": "activity profile in similar experiment with Daptomycin", "value": "identical activity profile"}]}]}
